# Laboratory results: PubChem BioAssay (NCI)
#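 A five-concentration, 48-hour dose response in 96-well plates underlies each endpoint, interpolated linearly between surrounding concentrations. TGI is the concentration that stops growth completely.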
# Legend:
# Experiment in all cases: NCI-60 cell line screen, 48 h
# SF-539 CNS = system: SF-539 CNS
# HCT-15 colon = system: HCT-15 colon
# SF-295 CNS = system: SF-295 CNS
# SK-OV-3 ovarian = system: SK-OV-3 ovarian
# UACC-62 melanoma = system: UACC-62 melanoma
# SK-MEL-2 melanoma = system: SK-MEL-2 melanoma
# OVCAR-3 ovarian = system: OVCAR-3 ovarian
# COLO 205 colon = system: COLO 205 colon
# OVCAR-5 ovarian = system: OVCAR-5 ovarian
# HCC-2998 colon = system: HCC-2998 colon
# DU-145 prostate = system: DU-145 prostate
# RXF 393 renal = system: RXF 393 renal
# HCT-116 colon = system: HCT-116 colon
# HOP-92 NSCLC = system: HOP-92 NSCLC
# SK-MEL-5 melanoma = system: SK-MEL-5 melanoma
# IGROV1 ovarian = system: IGROV1 ovarian
# NCI/ADR-RES ovarian = system: NCI/ADR-RES ovarian
# UACC-257 melanoma = system: UACC-257 melanoma
# 786-0 renal = system: 786-0 renal
# PC-3 prostate = system: PC-3 prostate
# EKVX NSCLC = system: EKVX NSCLC
# CCRF-CEM leukemia = system: CCRF-CEM leukemia
# SF-268 CNS = system: SF-268 CNS
# HOP-62 NSCLC = system: HOP-62 NSCLC
# BT-549 breast = system: BT-549 breast
# A498 renal = system: A498 renal
# ACHN renal = system: ACHN renal
# LOX IMVI melanoma = system: LOX IMVI melanoma
# OVCAR-4 ovarian = system: OVCAR-4 ovarian
# MDA-MB-231 breast = system: MDA-MB-231 breast
# MALME-3M melanoma = system: MALME-3M melanoma
# RPMI-8226 leukemia = system: RPMI-8226 leukemia
# UO-31 renal = system: UO-31 renal
# HT29 colon = system: HT29 colon
# K-562 leukemia = system: K-562 leukemia
# SN12C renal = system: SN12C renal
# SK-MEL-28 melanoma = system: SK-MEL-28 melanoma
# OVCAR-8 ovarian = system: OVCAR-8 ovarian
# TK-10 renal = system: TK-10 renal
# KM12 colon = system: KM12 colon
# CAKI-1 renal = system: CAKI-1 renal
# M14 melanoma = system: M14 melanoma
# SW-620 colon = system: SW-620 colon
# T-47D breast = system: T-47D breast
# A549 NSCLC = system: A549 NSCLC
# SNB-75 CNS = system: SNB-75 CNS
# MDA-N = system: MDA-N
# MOLT-4 leukemia = system: MOLT-4 leukemia
# NCI-H226 lung = system: NCI-H226 lung
# NCI-H460 lung = system: NCI-H460 lung
# HS 578T breast = system: HS 578T breast
# NCI-H23 lung = system: NCI-H23 lung
# NCI-H522 lung = system: NCI-H522 lung
# MCF7 breast = system: MCF7 breast
# MDA-MB-435 = system: MDA-MB-435
# SNB-19 CNS = system: SNB-19 CNS
# U251 CNS = system: U251 CNS
# HL-60(TB) leukemia = system: HL-60(TB) leukemia
# SR leukemia = system: SR leukemia
smiles,measurement,setting,value
C=C1C(=O)O[C@@H]2[C@H]1C[C@@H](O)[C@H](C)[C@@](O)(C(=O)/C=C/C)[C@H]2OC(=O)C(C)CC (stereo partly specified),TGI,SF-539 CNS,15.8 µM
same,TGI,HCT-15 colon,7.97 µM
same,TGI,SF-295 CNS,> 100 µM
same,TGI,SK-OV-3 ovarian,> 100 µM
same,TGI,UACC-62 melanoma,32.9 µM
same,TGI,SK-MEL-2 melanoma,84.1 µM
same,TGI,OVCAR-3 ovarian,10.4 µM
same,TGI,COLO 205 colon,3.33 µM
same,TGI,OVCAR-5 ovarian,14.5 µM
same,TGI,HCC-2998 colon,> 67.4 µM
same,TGI,DU-145 prostate,22.8 µM
same,TGI,RXF 393 renal,5.36 µM
same,TGI,HCT-116 colon,3.58 µM
same,TGI,HOP-92 NSCLC,9.83 µM
same,TGI,SK-MEL-5 melanoma,21.3 µM
same,TGI,IGROV1 ovarian,12.8 µM
same,TGI,NCI/ADR-RES ovarian,> 67.2 µM
same,TGI,UACC-257 melanoma,> 39.4 µM
same,TGI,786-0 renal,6.91 µM
same,TGI,PC-3 prostate,51.5 µM
same,TGI,EKVX NSCLC,27.3 µM
same,TGI,CCRF-CEM leukemia,0.229 µM
same,TGI,SF-268 CNS,> 54 µM
same,TGI,HOP-62 NSCLC,49.2 µM
same,TGI,BT-549 breast,13.3 µM
same,TGI,A498 renal,37.7 µM
same,TGI,ACHN renal,9.89 µM
same,TGI,LOX IMVI melanoma,12.3 µM
same,TGI,OVCAR-4 ovarian,22.8 µM
same,TGI,MDA-MB-231 breast,19.6 µM
same,TGI,MALME-3M melanoma,4.42 µM
same,TGI,RPMI-8226 leukemia,18.2 µM
same,TGI,UO-31 renal,4.06 µM
same,TGI,HT29 colon,5.21 µM
same,TGI,K-562 leukemia,23.6 µM
same,TGI,SN12C renal,7.51 µM
same,TGI,SK-MEL-28 melanoma,24.2 µM
same,TGI,OVCAR-8 ovarian,6.4 µM
same,TGI,TK-10 renal,16.7 µM
same,TGI,KM12 colon,33.1 µM
same,TGI,CAKI-1 renal,2.91 µM
same,TGI,M14 melanoma,9.03 µM
same,TGI,SW-620 colon,6.65 µM
same,TGI,T-47D breast,71.8 µM
same,TGI,A549 NSCLC,33 µM
same,TGI,SNB-75 CNS,51.6 µM
same,TGI,MDA-N,10.3 µM
same,TGI,MOLT-4 leukemia,> 36.9 µM
same,TGI,NCI-H226 lung,> 100 µM
same,TGI,NCI-H460 lung,> 100 µM
same,TGI,HS 578T breast,6.34 µM
same,TGI,NCI-H23 lung,18.2 µM
same,TGI,NCI-H522 lung,3.42 µM
same,TGI,MCF7 breast,24.9 µM
same,TGI,MDA-MB-435,11.1 µM
same,TGI,SNB-19 CNS,> 68.8 µM
same,TGI,U251 CNS,26.6 µM
CCSc1nc(N)c2c(-c3ccc(OC)c(OC)c3)c3c(nc2n1)CCCC3,TGI,SF-539 CNS,> 100 µM
same,TGI,HCT-15 colon,> 100 µM
same,TGI,SF-295 CNS,> 100 µM
same,TGI,SK-OV-3 ovarian,> 100 µM
same,TGI,UACC-62 melanoma,> 100 µM
same,TGI,OVCAR-3 ovarian,> 100 µM
same,TGI,COLO 205 colon,> 100 µM
same,TGI,OVCAR-5 ovarian,> 100 µM
same,TGI,DU-145 prostate,> 100 µM
same,TGI,RXF 393 renal,> 100 µM
same,TGI,HL-60(TB) leukemia,> 100 µM
same,TGI,HCT-116 colon,> 100 µM
same,TGI,SK-MEL-5 melanoma,> 100 µM
same,TGI,IGROV1 ovarian,> 100 µM
same,TGI,NCI/ADR-RES ovarian,> 100 µM
same,TGI,UACC-257 melanoma,> 100 µM
same,TGI,PC-3 prostate,> 100 µM
same,TGI,EKVX NSCLC,> 100 µM
same,TGI,CCRF-CEM leukemia,> 100 µM
same,TGI,SF-268 CNS,> 100 µM
same,TGI,HOP-62 NSCLC,> 100 µM
same,TGI,BT-549 breast,> 100 µM
same,TGI,ACHN renal,> 100 µM
same,TGI,LOX IMVI melanoma,> 100 µM
same,TGI,OVCAR-4 ovarian,> 100 µM
same,TGI,MDA-MB-231 breast,> 100 µM
same,TGI,MALME-3M melanoma,> 100 µM
same,TGI,RPMI-8226 leukemia,> 100 µM
same,TGI,UO-31 renal,> 100 µM
same,TGI,HT29 colon,> 100 µM
same,TGI,K-562 leukemia,> 100 µM
same,TGI,SN12C renal,> 100 µM
same,TGI,SK-MEL-28 melanoma,> 100 µM
same,TGI,OVCAR-8 ovarian,> 100 µM
same,TGI,TK-10 renal,> 100 µM
same,TGI,KM12 colon,> 100 µM
same,TGI,CAKI-1 renal,> 100 µM
same,TGI,M14 melanoma,> 100 µM
same,TGI,SW-620 colon,> 100 µM
same,TGI,T-47D breast,> 100 µM
same,TGI,A549 NSCLC,> 100 µM
same,TGI,SR leukemia,> 100 µM
same,TGI,SNB-75 CNS,> 100 µM
same,TGI,MDA-N,> 100 µM
same,TGI,MOLT-4 leukemia,> 100 µM
same,TGI,NCI-H460 lung,> 100 µM
same,TGI,HS 578T breast,> 100 µM
same,TGI,NCI-H23 lung,> 100 µM
same,TGI,MCF7 breast,> 100 µM
same,TGI,MDA-MB-435,> 100 µM
same,TGI,SNB-19 CNS,> 100 µM
same,TGI,U251 CNS,> 100 µM
CC1=NN(C(=O)CC(=O)Nc2ccccc2C)C(=O)C1N=Nc1ccc(C(=O)O)cc1 (stereo unspecified),TGI,SF-539 CNS,> 100 µM
same,TGI,HCT-15 colon,> 100 µM
same,TGI,SF-295 CNS,> 100 µM
same,TGI,UACC-62 melanoma,> 100 µM
same,TGI,SK-MEL-2 melanoma,> 100 µM
same,TGI,OVCAR-3 ovarian,> 100 µM
same,TGI,COLO 205 colon,> 100 µM
same,TGI,OVCAR-5 ovarian,> 100 µM
same,TGI,HCC-2998 colon,> 100 µM
same,TGI,DU-145 prostate,> 100 µM
same,TGI,RXF 393 renal,> 100 µM
same,TGI,HL-60(TB) leukemia,> 100 µM
same,TGI,HCT-116 colon,> 100 µM
same,TGI,HOP-92 NSCLC,> 100 µM
same,TGI,SK-MEL-5 melanoma,> 100 µM
same,TGI,IGROV1 ovarian,> 100 µM
same,TGI,NCI/ADR-RES ovarian,> 100 µM
same,TGI,UACC-257 melanoma,> 100 µM
same,TGI,786-0 renal,> 100 µM
same,TGI,PC-3 prostate,> 100 µM
same,TGI,EKVX NSCLC,> 100 µM
same,TGI,CCRF-CEM leukemia,> 100 µM
same,TGI,SF-268 CNS,> 100 µM
same,TGI,HOP-62 NSCLC,> 100 µM
same,TGI,BT-549 breast,> 100 µM
same,TGI,A498 renal,> 100 µM
same,TGI,ACHN renal,> 100 µM
same,TGI,LOX IMVI melanoma,> 100 µM
same,TGI,OVCAR-4 ovarian,> 100 µM
same,TGI,MDA-MB-231 breast,> 100 µM
same,TGI,MALME-3M melanoma,> 100 µM
same,TGI,RPMI-8226 leukemia,> 100 µM
same,TGI,UO-31 renal,> 100 µM
same,TGI,HT29 colon,> 100 µM
same,TGI,K-562 leukemia,> 100 µM
same,TGI,SN12C renal,> 100 µM
same,TGI,SK-MEL-28 melanoma,> 100 µM
same,TGI,OVCAR-8 ovarian,> 100 µM
same,TGI,TK-10 renal,> 100 µM
same,TGI,KM12 colon,> 100 µM
same,TGI,CAKI-1 renal,> 100 µM
same,TGI,M14 melanoma,> 100 µM
same,TGI,SW-620 colon,> 100 µM
same,TGI,T-47D breast,> 100 µM
same,TGI,A549 NSCLC,> 100 µM
same,TGI,SR leukemia,> 100 µM
same,TGI,SNB-75 CNS,> 100 µM
same,TGI,MDA-N,> 100 µM
same,TGI,MOLT-4 leukemia,> 100 µM
same,TGI,NCI-H460 lung,> 100 µM
same,TGI,HS 578T breast,> 100 µM
same,TGI,NCI-H23 lung,> 100 µM
same,TGI,NCI-H522 lung,> 100 µM
same,TGI,MCF7 breast,> 100 µM
same,TGI,MDA-MB-435,> 100 µM
same,TGI,SNB-19 CNS,> 100 µM
same,TGI,U251 CNS,> 100 µM
